Patent EP4549575A1 (priority 2023, dated 2025)
“Also recorded” adds a separate entry of the source. Square brackets hold non-standard residues; d marks the D form. Ends that are not written are not given here. Peptide text beside a SMILES is read from it. βAla = NCCC(=O)O

Experiments:
pronase [1] = test: Stability towards proteolysis (pronase, LC-MS); assay type: in vitro ADME, Streptomyces griseus; details: peptide 200 µM, protease 5 µg/mL, 37°C, pH 7.5; for stability against proteolysis: 0-2 h
Method: The evaluation of the stability of CP20 and Ac-LP20 towards proteolysis was tested at a peptide concentration of 200 µM using pronase (commercially available mixture of proteases isolated from the extracellular fluid of Streptomyces griseus, 2.5 µg/mg). Another peptide was added to this analysis, namely LP20 (without N-terminal acetylation), as it is easier to synthesize and to also assess the influence of N-terminal acetylation on the stability of LP20. Each peptide was tested in the presence of the protease (5 µg/mL) at 37°C in a buffer solution (50 mM Tris, 10 mM CaCl2, 150 mM NaCl, 0.05 % (w/v) Brij 35, pH 7.5) and its stability monitored by liquid chromatography coupled to mass spectrometry (LC-MS) at different time intervals (t=0 min, 10 min, 30 min, 1 h, 2 h). To stop enzyme activity, a small amount of the solution (60 µL) was transferred to an HPLC vial containing 6 µL of a 10% TFA solution at these different time points.

P. infestans = assay type: cell-based; details: P. infestans mycelium in vitro
[2] = Conformational studies based on circular dichroism; assay type: physicochemical
Method: Conformational studies based on circular dichroism were performed under different conditions, such as: • 10 mM phosphate buffer, pH 7 • MES buffer 10 mM, pH 6 • Buffer acetate 10 mM, pH 5 • Phosphate buffer 10 mM/TFE (1:1) • TFE (trifluoroethanol)
Conformational studies based on circular dichroism were performed under different conditions such as: • 10 mM phosphate buffer, pH7 • Phosphate buffer 10mM/TFE, pH7 (1:1) • TFE (trifluoroethanol)
Conformational studies based on circular dichroism were performed under different conditions, such as: • 10 mM phosphate buffer, pH7 • MES buffer 10 mM, pH6 • Buffer acetate 10 mM, pH5 • Phosphate buffer 10 mM/TFE, pH7 (1:1) • TFE (trifluoroethanol)
Conformational studies based on circular dichroism were performed under different conditions, such as: • 10 mM phosphate buffer, pH7 • 10mM phosphate buffer/TFE (1:1) • TFE (trifluoroethanol)

[3] = Chemical-physical properties (isoelectric point, net charge, solubility in water); assay type: physicochemical; details: for net charge: at pH 7
pronase [4] = test: pronase (commercially available mixture of proteases isolated from the extracellular fluid of Streptomyces griseus, 2.5 µg/mg) in buffer solution (50 mM Tris, 10 mM CaCl2, 150 mM NaCl, 0.05 % (w/v) Br); details: 37°C, up to 2 h
[5] = pH 7-TFE: phosphate buffer 10 mM/TFE (1:1)

Compound | time of total proteolysis of the peptide (pronase [1]) [min] | stability against proteolysis (pronase [1]) | Disordered (%) ([2]; 10 mM phosphate buffer, pH 7) | Helixes (%) ([2]; 10 mM phosphate buffer, pH 7) | Sheets (%) ([2]; 10 mM phosphate buffer, pH 7) | Turns (%) ([2]; 10 mM phosphate buffer, pH 7) | Disordered (%) ([2]; TFE (trifluoroethanol)) | Helixes (%) ([2]; TFE (trifluoroethanol)) | Sheets (%) ([2]; TFE (trifluoroethanol)) | Turns (%) ([2]; TFE (trifluoroethanol)) | Disordered (%) [2, 5] [%] | Helixes (%) [2, 5] [%] | Sheets (%) [2, 5] [%] | Turns (%) [2, 5] [%] | isoelectric point [3] [pH] | net charge [3] | solubility in water [3] | cleaved bond (pronase [4]) | also measured
CC(=O)NCCC(=O)NCC(=O)N[C@@H](CCCNC(=N)N)C(=O)N[C@@H](CC(C)C)C(=O)N[C@@H](CCCNC(=N)N)C(=O)N[C@@H](Cc1c[nH]c2ccccc12)C(=O)N[C@@H](CC(C)C)C(=O)N[C@@H](CCCNC(=N)N)C(=O)N[C@H](C(N)=O)C(C)C [Ac-LP32, Ac-βA -G-R-L-R-W-L-R-V-CONH2] (Ac-[βAla]GRLRWLRV-NH2) | 10 | low stability | 44 | 5 | 33 | 18 | 51 | 5 | 30 | 14 | 47 | 5 | 30 | 18 | 14 | +3 | good solubility in water | – | PPI (%) micelio (P. infestans; Ala-scan of Ac-LP32): 70.23 ± 3.84%
[βAla]RWMLVYRR [LP20] | – | – | – | – | – | – | – | – | – | – | – | – | – | – | – | – | – | Met4-Leu, first_seen, t0; also recorded: Arg2-Trp3, 10 min; also recorded: Trp3-Met4, 10 min | –
CSCC[C@H](NC(=O)[C@H](Cc1c[nH]c2ccccc12)NC(=O)[C@H](CCCNC(=N)N)NC(=O)CCNC(C)=O)C(=O)N[C@@H](CC(C)C)C(=O)N[C@H](C(=O)N[C@@H](Cc1ccc(O)cc1)C(=O)N[C@@H](CCCNC(=N)N)C(=O)N[C@@H](CCCNC(=N)N)C(N)=O)C(C)C [Ac-LP20, Ac-βA -R-W-M-L-V-Y-R-R-CONH2] (Ac-[βAla]RWMLVYRR-NH2) | 10 | Low stability | 37 | 5 | 36 | 22 | 31 | 19 | 27 | 23 | 29 | 18 | 29 | 24 | 12.4 | +3 | good solubility in water | – | PPI (%) mycelium (P. infestans; Ala-scan of Ac-LP20 and CP20-Met-Ala): 78.80 ± 4.07%; Disordered (%) ([2]; MES buffer 10 mM, pH 6): 33%; Helixes (%) ([2]; MES buffer 10 mM, pH 6): 6%; Sheets (%) ([2]; MES buffer 10 mM, pH 6): 40%; Turns (%) ([2]; MES buffer 10 mM, pH 6): 21%; Disordered (%) ([2]; acetate buffer 10 mM, pH 5): 36%; Helixes (%) ([2]; acetate buffer 10 mM, pH 5): 7%; Sheets (%) ([2]; acetate buffer 10 mM, pH 5): 35%; Turns (%) ([2]; acetate buffer 10 mM, pH 5): 22%
Ac-[βAla]GRLRWLRV-NH2 | – | – | – | – | – | – | – | – | – | – | – | – | – | – | – | – | – | Trp-Leu7, 10 minutes later; also recorded: Leu4-Arg5, 10 min; also recorded: Arg5-Trp, 10 min; also recorded: Leu7-Arg8, 10 min; also recorded: Arg8-Val, 10 min | –
Ac-[βAla]RWMLVYRR-NH2 | – | – | – | – | – | – | – | – | – | – | – | – | – | – | – | – | – | Met4-Leu, first_seen, t0; also recorded: Arg2-Trp3, 10 min; also recorded: Trp3-Met4, 10 min | –
[βAla]GRLRWLRV [CP32] | – | – | – | – | – | – | – | – | – | – | – | – | – | – | – | – | – | βAla-Gly, first_seen, After mixing protease with peptide solution; also recorded: Leu7-Arg8, first_seen, After mixing protease with peptide solution; also recorded: Arg8-Val; also recorded: Leu4-Arg5, 10 minutes; also recorded: Arg5-Trp, 10 minutes; also recorded: Trp-Leu7, 10 minutes | –
